Laboratory results published in patent US10933053B2, “Treating infections with ceftolozane/tazobactam in subjects having impaired renal function” (MERCK SHARP & DOHME CORP., priority 2013, dated 2021).

Test: Phase I studies: impact of renal function on PK and safety of ceftolozane/tazobactam
Format: in vivo, human
Conditions: for median AUC0-∞ increase vs normal renal function / median Cmax increase vs normal renal function: moderate renal impairment; for median AUC0-∞ increase vs dose-normalized exposure in normal renal function / median Cmax increase vs dose-normalized exposure in normal renal function: severe renal impairment
Description: Male and female subjects, aged 18 to 79 years, with varying degrees of renal function were enrolled in two, prospective, open-label, phase I studies of intravenous ceftolozane/tazobactam. A total of 36 subjects were enrolled into cohorts based on degree of renal function: normal (n=11), mild impairment (n=6), moderate impairment (n=7), severe impairment (n=6), and ESRD on HD (n=6). To ensure subjects with ESRD were receiving effective HD, a target adequacy of HD calculated from the pre- and post-blood urea nitrogen ratios (Kt/V) of at least 1.2 for a minimum of 3 months prior to enrollment was required.
All cohorts received ceftolozane/tazobactam as an intravenous infusion over 1 h. The normal, mild, and moderate renal impairment cohorts received a single dose of ceftolozane/tazobactam 1,000 mg/500 mg; the severe renal impairment cohort received a single dose of ceftolozane/tazobactam 500 mg/250 mg; the ESRD cohort received a dose of ceftolozane/tazobactam 500 mg/250 mg initiated at the end of HD on day 1 and another dose initiated 2 h before HD on day 4. Subjects with ESRD underwent HD for 3 to 4 h using a high-flux membrane as scheduled; average dialysis flow rate was 600 to 800 ml/min. Revaclear hemodialyzers (Gambro, Stockholm, Sweden) were used in 5 subjects (ultrafiltration coefficient 50 to 60 ml/h/mmHg, high flux membrane of 1.4 to 1.8 m^2) and a CT 190G hemodialyzers (Baxter Healthcare, McGaw Park, Ill.) was used in 1 subject (ultrafiltration coefficient 36 ml/h/mmHg, high flux membrane of 1.9 m^2). The average blood flow rate was 400 to 600 ml/min with the exception of one subject with rates between 264 and 400 ml/min.
Plasma concentrations of ceftolozane and tazobactam were measured prior to, during, and following administration of ceftolozane/tazobactam. Blood samples were collected 30 min prior to administration, at the end of administration and at 5, 15, and 30 min and 1, 2, 3, 5, 7, 9, 11, 15, 25, and 35 h after completion of ceftolozane/tazobactam administration in the normal, mild, and moderate renal impairment cohorts. Severe renal impairment and ESRD cohorts off HD had samples taken 30 min prior to administration and at 0.5, 1, 1.5, 2, 3, 6, 9, 12, 24, 36, and 48 h after the start of administration. On the day of and following HD, the subjects with ESRD had samples taken 30 min prior to administration and at 0.5, 1, 1.5, 2, 3, 4, 5, 6, 9, 12, 24, 36, and 44 h after the start of the administration. The entire dialysate was collected at each of the following intervals: 0 to 1, 1 to 2, 2 to 3, and 3 h to the end of dialysis. Urine for PK analysis was obtained in the normal, mild, and moderate cohorts at 0 to 2, 2 to 4, 4 to 8, 8 to 12, 12 to 24, and 24 to 36 h after the start of ceftolozane/tazobactam administration. In the ESRD and severe renal impairment cohorts, urine was collected during the confinement period pre-dose, 0 to 24 h, and 24 to 48 h after the start of the administration, unless the subject was anuric. A validated LC/MS/MS method was utilized to analyze all plasma, urine, and dialysate samples for ceftolozane and tazobactam (MicroConstants Inc., San Diego, Calif.) (4). The lower limit of quantification (LLOQ) in plasma was 0.25 μg/ml for ceftolozane and 0.1 μg/ml for tazobactam. The assay was linear between 0.25 and 150 μg/ml for ceftolozane and between 0.1 and 50 μg/ml for tazobactam. […] The LLOQ in dialysate for both ceftolozane and tazobactam was 1 ng/ml and the assay was linear between 1 and 500 ng/ml. […] The LLOQ for ceftolozane and tazobactam in urine was 5 and 10 μg/ml, respectively, and the assay was linear between 5 and 5,000 μg/ml for ceftolozane and between 10 and 10,000 μg/ml for tazobactam.

| Compound | median AUC0-∞ increase vs normal renal function | median Cmax increase vs normal renal function | median AUC0-∞ increase vs dose-normalized exposure in normal renal function | median Cmax increase vs dose-normalized exposure in normal renal function |
| --- | --- | --- | --- | --- |
| Cn1c(N)c(NC(=O)NCCN)c[n+]1CC1=C(C(=O)O)N2C(=O)[C@@H](NC(=O)/C(=N\OC(C)(C)C(=O)O)c3nsc(N)n3)[C@H]2SC1 [Ceftolozane, (6R,7R)-3-[(5-amino-4-{[(2-aminoethyl)carbamoyl]amino}-1-methyl-1H-pyrazol-2-ium-2-yl)methyl]-7-({(2Z)-2-(5-amino-1,2,4-thiadiazol-3-yl)-2-[(1-carboxy-1-methylethoxy)imino]acetyl}amino)-8-oxo-5-thia-1-azabicyclo[4.2.0]oct-2-ene-2-carboxylate] | 2.5 fold | 1.2 fold | 4.4 fold | 1.3 fold |
| C[C@]1(Cn2ccnn2)[C@H](C(=O)O)N2C(=O)C[C@H]2S1(=O)=O [Tazobactam, tazobactam] | 2.2 fold | 1.6 fold | 3.8 fold | 1.9 fold |
